Test results as given in PubChem BioAssay AID602331 (Johns Hopkins Ion Channel Center, 2012).
Calls of active or inactive are those of the source.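 How the source made its calls: active means compound boosting capsaicin-evoked TRPV1 current more than 1.5 times over the capsaicin response; inactive means the rest.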

Target: Transient receptor potential cation channel subfamily V member 1 (Homo sapiens) (UniProt Q8NER1)
Test: capsaicin-evoked TRPV1 current potentiation – QPatch automated patch clamp, HEK293 cells, confirmation (AID 602331)
Conditions: +100 mV, at 10 µM, stronger effect = higher value

Transient receptor potential cation channel subfamily V member 1 (Homo sapiens), sequence (Q8NER1 whole entry, looked up): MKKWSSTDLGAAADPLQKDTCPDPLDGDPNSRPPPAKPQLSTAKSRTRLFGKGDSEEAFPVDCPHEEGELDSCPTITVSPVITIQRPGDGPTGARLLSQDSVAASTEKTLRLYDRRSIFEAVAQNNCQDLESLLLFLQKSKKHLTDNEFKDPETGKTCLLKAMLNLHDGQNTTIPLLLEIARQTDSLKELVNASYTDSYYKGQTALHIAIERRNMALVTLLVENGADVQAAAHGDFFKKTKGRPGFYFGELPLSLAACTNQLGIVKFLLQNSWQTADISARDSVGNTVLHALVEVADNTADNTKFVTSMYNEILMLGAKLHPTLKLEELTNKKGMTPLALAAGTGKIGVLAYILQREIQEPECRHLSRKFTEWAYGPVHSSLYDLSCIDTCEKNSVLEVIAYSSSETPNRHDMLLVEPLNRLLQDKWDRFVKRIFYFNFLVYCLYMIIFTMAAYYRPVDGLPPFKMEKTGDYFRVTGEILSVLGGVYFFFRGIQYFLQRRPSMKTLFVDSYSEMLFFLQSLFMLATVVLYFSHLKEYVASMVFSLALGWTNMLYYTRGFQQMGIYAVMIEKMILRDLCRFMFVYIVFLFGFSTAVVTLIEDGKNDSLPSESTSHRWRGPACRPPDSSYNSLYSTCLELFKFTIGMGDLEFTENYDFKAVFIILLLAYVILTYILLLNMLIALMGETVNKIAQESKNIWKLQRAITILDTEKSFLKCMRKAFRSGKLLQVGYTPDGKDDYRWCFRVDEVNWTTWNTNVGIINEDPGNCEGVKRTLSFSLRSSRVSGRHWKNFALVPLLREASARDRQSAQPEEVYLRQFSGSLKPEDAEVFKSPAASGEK

SMILES | fold potentiation
O=c1c(/C=N/OCc2ccc(Cl)cc2Cl)c[nH]n1-c1cccc(Cl)n1 | 0.906 (inactive)
CC1=C(C)/C(=N\OS(=O)(=O)c2ccc(C)cc2)C=CC1=O | 1.63
O=C(COC(=O)c1ccc2c(c1)C(=O)N(Cc1ccncc1)C2=O)Nc1ccccc1[N+](=O)[O-] | 3.23
Cc1csc2c(=O)sc(NC(=O)c3ccc(F)cc3Cl)nc12 | 1.08 (inactive)
CC(=O)Nc1cccc(C(=O)OCC(=O)NCc2cc(C)c(O)c(C)c2)c1 | 0.956 (inactive)
CC(C)C(=O)Nc1ccc(C(=O)CN2C(=O)NC3(CCOc4ccccc43)C2=O)cc1 (configuration not stated) | 0.776 (inactive)
O=C(CNc1cccc(S(=O)(=O)N2CCOCC2)c1)Nc1cccc(Br)c1 | 0.827 (inactive)
